# Data as given in patent publication US10306895B2, “Plant defense signaling peptides and applications thereof” (Academia Sinica, priority 2014, dated 2019).
# Ends that are not written are not given here.
# Legend:
# Pst DC3000 [1] = conditions: seedlings treated with 50 mM NaCl for 24 hours, with or without 250 nM AtCAPE1 for 6 hours
# Method: 5 days Arabidopsis seedlings treated with 50 mM NaCl for 24 hours and following the treatment of with or without 250 nM AtCAPE1 for 6 hours. The infection symptoms were observed 4 days after Pst DC3000 inoculation. The bacterial numbers were calculated 7 days after inoculation and represented as log colony-forming units (Log CFU) per g leaf tissue. Data represent the means and SD of three biological samples.
# Pst DC3000 or hrcC^− were grown in water- or peptide-treated plants for several days to observe the symptoms and then the bacteria were collected from the leaves and evaluated by bacterial titers according to a method outlined previously (Zimmerli et al., 2000).
# [2] = system: JA and JA-Ile accumulation; assay: Jasmonate hormone quantitation by LC-MS/MS in excised tomato plants; format: in vivo, Solanum lycopersicum (tomato); conditions: 365 nM peptide in buffer through the cut stem of excised plants, 2 and 4 hours
# Method: The plants treated with 10 mM phosphate buffer (buffer), 365 nM systemin (Sys) or 365 nM CAPE1 in buffer through the cut stem for 2 and 4 hours (n=3). The quantity of JA and JA-Ile were quantified by LC-SRM-MS and calculated by the abundance of spiked standard H2JA. Data represent the means and SD of three independent biological replicates.
# To compare the jasmonates induced by the peptides, the excised tomato plants were treated with 10 mM phosphate buffer, 365 nM systemin or 365 nM CAPE1 in buffer through the cut stem for 2 and 4 hours (Schaller et al., 1995; Howe et al., 1996).
# After peptide treatment, the metabolites were extracted from leaf tissues for phytohormone quantitation. The extraction procedure was modified from a previously published protocol (Pan et al., 2010). The leaf tissues (about 0.6 g fresh weight) were ground into powder under liquid nitrogen and transferred to a 50 ml screw-cap tube. The frozen leaf powder was dissolved in 6 ml extraction solvent and d6-SA (3 ng to 0.6 g leaf tissue) and H2JA (15 ng to 0.6 g leaf tissue) were added as internal standards. The samples were extracted by shaking at a speed of 100 rpm at 4° C. for 30 minutes and then 12 ml dichloromethane was added to each sample and shaken at 100 rpm at 4° C. for 30 minutes. The samples were centrifuged at 13,000×g at 4° C. for 5 minutes, and two phases were formed. […]
# [3] = system: PR-1b and WRKY53 gene expression; assay: qRT-PCR of defense genes in tomato leaves pretreated with cleavage motif peptide and challenged with Pst DC3000 hrcC-; format: in vivo; conditions: 1 μM CNYDPV pretreatment for 2 h, then Pst DC3000 hrcC- challenge for 2 h
# Method: Relative expression levels of PR-1b and WRKY53 were analyzed by qRT-PCR 2 h after challenge of 10^7 cfu/mL Pst DC3000 hrcC^− or buffer in tomato leaves, which was pretreated with water, 100 nM CAPE1 or 1 μM CNYDPV for 2 h, respectively.
# Quantitative real-time PCR (qRT-PCR) was used to validate the expression of some specific genes. Three biological replicates were used for qRT-PCR analyses. The qRT-PCR was performed using SYBR Green reagent and ABI 7500 Real Time PCR systems (Foster City, Calif.). The PCR cycling steps were 50° C. for 2 min and 94° C. for 10 min for initial steps and followed by 95° C. for 15 s and 60° C. for 1 min for 40 cycles. The gene expressions across different samples were normalized with internal control EF-1α or Ubi3. The melting curve was used to verify the specificity of the PCR product.
# Pst DC3000 [4] = assay: Pathogen challenge of presprayed Arabidopsis plants; format: in vivo, Pseudomonas syringae pv. tomato; conditions: plants sprayed with 100 nM peptide for 2 hours prior to inoculation
# Method: The infection symptoms were observed 4 days after inoculation. The bacterial numbers were calculated 4 days after inoculation and are represented as log colony-forming units (Log CFU) per g leaf tissue. Data represent the means and SD of three biological samples.
# To test the anti-pathogen activity induced by peptides in Arabidopsis, the plants were sprayed with 100 nM AtCAPE1, AtCAPE9, 100 nM flg22 or water, respectively, for 2 hours prior to pathogen challenge.
# The bacterial pathogen Pseudomonas syringae pv. tomato DC3000 (Pst DC3000) or Pst DC3000 hrcC^− were grown on King's B (KB) agar medium containing 100 mg/L rifampicin for 2 days at 28° C. Before the challenge, the bacteria were cultured in KB liquid medium at 28° C. with 230 rpm shaking overnight. The bacteria were pelleted by centrifugation and resuspended in 10 mM MgSO4 at A600=0.25 (about 10^8 cfu/ml).
# SA accumulation = assay: Salicylic acid quantitation by LC-MS/MS in excised tomato plants; format: in vivo, Solanum lycopersicum (tomato); conditions: 365 nM peptide supplied to excised plants through cut stem, 8 hours
# Method: (a) The level of SA induced by CAPE1 and flg22. The excised plants were pretreated with 10 mM phosphate buffer (buffer) or 365 nM CAPE1 or 365 nM flg22 in buffer through the cut stem for 8 hours (n=3). The quantity of SA was quantified by LC-SRM-MS and calculated based on the abundance of spiked SA isotopic standard (d6-SA). (b) The relative expression of WRKY53 and PR-1b were quantified by comparing the expression levels in untreated detached leaves with the detached leaves treated with water, 250 nM CAPE1 or 250 nM flg22 for 2 hours (n=4). The internal control Ubi3 was used for normalization. […]
# After peptide treatment, the metabolites were extracted from leaf tissues for phytohormone quantitation. […] The dried samples were dissolved in 300 μl methanol, mixed well and centrifuged at 10,000×g at 4° C. for 5 minutes and then the supernatant was transferred to the sample vial for targeted quantitation analysis using LC-MS/MS.
# For phytohormone quantitation, a linear ion trap-orbitrap mass spectrometer (Orbitrap Elite, Thermo Fisher Scientific, Bremen, Germany) coupled online with a UHPLC system (ACQUITY UPLC, Waters, Millford, Mass.) was used. […] The fragmentation reactions of m/z 137.02 to 93.03 for SA, 209.12 to 59.01 for JA, 322.20 to 130.09 for JA-Ile, 141.05 to 97.06 for d6-SA and 211.13 to 59.01 for H2JA were selected for quantitation. […]
# [5] = system: WRKY53 and PR-1b gene expression; assay: qRT-PCR of WRKY53 and PR-1b in detached tomato leaves; format: in vivo, Solanum lycopersicum (tomato); conditions: 250 nM peptide, 2 hours
# Method: (a) The level of SA induced by CAPE1 and flg22. The excised plants were pretreated with 10 mM phosphate buffer (buffer) or 365 nM CAPE1 or 365 nM flg22 in buffer through the cut stem for 8 hours (n=3). The quantity of SA was quantified by LC-SRM-MS and calculated based on the abundance of spiked SA isotopic standard (d6-SA). (b) The relative expression of WRKY53 and PR-1b were quantified by comparing the expression levels in untreated detached leaves with the detached leaves treated with water, 250 nM CAPE1 or 250 nM flg22 for 2 hours (n=4). The internal control Ubi3 was used for normalization. (c) The Pst DC3000 infection phenotypes for plants presprayed with water, 100 nM CAPE1 or 100 nM flg22 peptide for 2 hours (n=3) prior to the pathogen inoculation. The infection symptoms were observed 4 days after inoculation. […] A statistically significant difference compared with the correspondingly treated water (or buffer) samples is indicated with ** (P<0.01) or *** (P<0.001) based on Student's t-test.
# Quantitative real-time PCR (qRT-PCR) was used to validate the expression of some specific genes. Three biological replicates were used for qRT-PCR analyses. The qRT-PCR was performed using SYBR Green reagent and ABI 7500 Real Time PCR systems (Foster City, Calif.). […]
# [6] = system: Pseudomonas syringae pv. tomato DC3000 (Pst DC3000); format: in vivo
# Method: (a) Changes of the larval sizes after feeding with water or 250 nM CAPE1 treated tomato leaves. The larval weights of thirty larvae were recorded each day. (b) The Pst DC3000 infection phenotypes of the plants presprayed with water or 100 nM CAPE1 peptide for 2 hours (n=3) prior to pathogen inoculation. […] All statistically significant differences between the CAPE1- and water-treated samples are indicated with * (P<0.05) or *** (P<0.001) based on Student's t-test.
# (a) The level of SA induced by CAPE1 and flg22. The excised plants were pretreated with 10 mM phosphate buffer (buffer) or 365 nM CAPE1 or 365 nM flg22 in buffer through the cut stem for 8 hours (n=3). The quantity of SA was quantified by LC-SRM-MS and calculated based on the abundance of spiked SA isotopic standard (d6-SA). (b) The relative expression of WRKY53 and PR-1b were quantified by comparing the expression levels in untreated detached leaves with the detached leaves treated with water, 250 nM CAPE1 or 250 nM flg22 for 2 hours (n=4). The internal control Ubi3 was used for normalization. (c) The Pst DC3000 infection phenotypes for plants presprayed with water, 100 nM CAPE1 or 100 nM flg22 peptide for 2 hours (n=3) prior to the pathogen inoculation. The infection symptoms were observed 4 days after inoculation. […]
# [7] = system: WRKY53, PR-1b, Adi3 and ERF5 gene expression; conditions: 30 minute or 6 hours treatment of flg22 on tomato; cited from earlier work
molecule,measurement,setting,value
"[Cl-].[Na+] [salt, NaCl]",anti-pathogen activity in Arabidopsis after salt treatment,Pst DC3000 [1],enhance the anti-pathogen activity
AVQSKPPSKRDPPKMQTD [systemin],induction of JA and JA-Ile,[2],significantly induced by treatment for 2 hours
CNYDPV,defense gene expression (PR-1b and WRKY53) in tomato,[3],decreased
PRGNYVNEKPY (listed as Arabidopsis thaliana) [AtCAPE9],immunity against Pst DC3000 infection in Arabidopsis,Pst DC3000 [4],increase immunity against Pst DC3000 infection
QRLSTGSRINSAKDDAAGLQIA [flg22],induction of SA,SA accumulation,significantly induced SA
same,WRKY53 expression,[5],highly induced
same,plant resistance to Pst DC3000 infection in tomato,[6]; plants sprayed with 100 nM peptide for 2 hours prior to inoculation,resulted in plant resistance to Pst DC3000 infection
same,"PR-1b, Adi3 and ERF5 induction (public RNA-seq data)",[7],could not be significantly induced
same,WRKY53 induction (public RNA-seq data),[7],could be induced
PAGNYIGARPY (listed as Arabidopsis thaliana) [AtCAPE1],immunity against Pst DC3000 infection in Arabidopsis,Pst DC3000 [4],increase immunity against Pst DC3000 infection
"PVGNWIGQRPY [CAPE1, PVGNWIGQRPY]",induction of the hypersensitive response (HR),[6]; in vivo,without induction of the HR
